Data: ChEMBL document CHEMBL3352592, “The antileishmanial activity of isoforms 6- and 8-selective histone deacetylase inhibitors” (Bioorg Med Chem Lett, 2014)
≈ marks a conversion by molar mass, not a printed value.

Legend:
Leishmania donovani [1] = assay: Antileishmanial activity against promastigote stage of Leishmania donovani after 72 hrs by Alamar blue assay; type: functional, organism-based
THP-1 = assay: Cytotoxicity against human THP1 cells after 48 hrs by Alamar blue assay; type: ADME, cell-based; conditions: THP-1, 48 h
Leishmania donovani [2] = assay: Antileishmanial activity against amastigote stage of Leishmania donovani infected in human THP1 cells after 48 hrs by Alamar blue assay; type: functional, organism-based; conditions: THP-1, 48 h
Leishmania donovani [3] = assay: Antileishmanial activity against axenic amastigote stage of Leishmania donovani after 72 hrs by Alamar blue assay; type: functional, organism-based
Leishmania donovani [4] = assay: Selectivity ratio of IC50 for axenic amastigote stage of Leishmania donovani to IC50 for amastigote stage of Leishmania donovani infected in human THP1 cells; type: functional, THP-1
Jurkat = assay: Cytotoxicity against human Jurkat cells; type: functional, cell-based
[5] = Cytotoxicity against human Jurkat gamma1 cells; type: functional, cell-based
DU-145 = assay: Cytotoxicity against human DU145 cells; type: functional, cell-based
LNCaP = assay: Cytotoxicity against human LNCAP cells; type: functional, cell-based

SMILES | IC50 (Leishmania donovani [1]) | IC50 (THP-1) | IC50 (Leishmania donovani [2]) | IC50 (Leishmania donovani [3]) | Ratio IC50 (Leishmania donovani [4]) | IC50 (Jurkat) | IC50 [5] | IC50 (DU-145) | IC50 (LNCaP)
Cc1cccc(-c2ccc(Cn3cccc(O)c3=S)cc2)c1 | 0.3 µg/mL (≈ 0.976 µM) | > 10 µg/mL | > 10 µg/mL | 32.6 µg/mL (≈ 106 µM) | – | – | – | – | –
Cc1ccc(-c2ccc(Cn3cccc(O)c3=S)cc2)cc1 | 0.3 µg/mL (≈ 0.976 µM) | > 10 µg/mL | 3.7 µg/mL (≈ 12 µM) | 31.3 µg/mL (≈ 102 µM) | – | – | – | – | –
N#Cc1cccc(-c2ccc(Cn3cccc(O)c3=S)cc2)c1 | 0.4 µg/mL (≈ 1.26 µM) | > 10 µg/mL | 3.9 µg/mL (≈ 12.2 µM) | 11.2 µg/mL (≈ 35.2 µM) | – | – | – | – | –
N#Cc1ccc(-c2ccc(Cn3cccc(O)c3=S)cc2)cc1 | 0.7 µg/mL (≈ 2.2 µM) | > 10 µg/mL | 0.9 µg/mL (≈ 2.83 µM) | 6.1 µg/mL (≈ 19.2 µM) | 5 | – | – | – | –
Oc1cccn(Cc2ccc(-c3ccccc3)cc2)c1=S | 0.1 µg/mL (≈ 0.341 µM) | > 10 µg/mL | 0.6 µg/mL (≈ 2.05 µM) | 6.3 µg/mL (≈ 21.5 µM) | 5 | – | – | – | –
Oc1ccc[nH]c1=S | 12.7 µg/mL (≈ 99.9 µM) | > 10 µg/mL | 6.1 µg/mL (≈ 48 µM) | 30.7 µg/mL (≈ 241 µM) | – | – | – | – | –
Oc1cccn(Cc2ccccc2)c1=S | 0.1 µg/mL (≈ 0.46 µM) | > 10 µg/mL | 5.8 µg/mL (≈ 26.7 µM) | 6.5 µg/mL (≈ 29.9 µM) | – | – | – | – | –
Oc1cccnc1O | > 40 µg/mL | > 10 µg/mL | > 10 µg/mL | > 40 µg/mL | – | – | – | – | –
N#Cc1ccccc1-c1ccc(Cn2cccc(O)c2=O)cc1 | 26.7 µg/mL (≈ 88.3 µM) | > 10 µg/mL | 1.8 µg/mL (≈ 5.95 µM) | > 40 µg/mL | – | – | – | – | –
N#Cc1ccccc1-c1ccc(Cn2cccc(O)c2=S)cc1 | 0.9 µg/mL (≈ 2.83 µM) | > 10 µg/mL | > 10 µg/mL | 31.7 µg/mL (≈ 99.6 µM) | – | 8.95 µM | Not Active | > 20 µM | 14.7 µM
O=c1c(O)cccn1Cc1cn(-c2ccccc2)nn1 | > 40 µg/mL | > 10 µg/mL | > 10 µg/mL | 18 µg/mL (≈ 67.1 µM) | – | – | – | – | –
CN(C)c1ccc(-n2cc(Cn3cccc(O)c3=O)nn2)cc1 | 14.5 µg/mL (≈ 46.6 µM) | > 10 µg/mL | 2 µg/mL (≈ 6.42 µM) | > 40 µg/mL | – | – | – | – | –
C[C@@H]1[C@H](O)[C@@H](C)/C=C/C=C/C=C/C=C/C=C/C=C/C=C/[C@H](O[C@@H]2O[C@H](C)[C@@H](O)[C@H](N)[C@@H]2O)C[C@@H]2O[C@](O)(C[C@@H](O)C[C@@H](O)[C@H](O)CC[C@@H](O)C[C@@H](O)CC(=O)O[C@H]1C)C[C@H](O)[C@H]2C(=O)O [AMPHOTERICIN B] | – | > 10 µg/mL | 0.2 µg/mL (≈ 0.216 µM) | 1.6 µg/mL (≈ 1.73 µM) | – | – | – | – | –
N=C(N)c1ccc(OCCCCCOc2ccc(C(=N)N)cc2)cc1 [PENTAMIDINE] | 0.6 µg/mL (≈ 1.76 µM) | > 10 µg/mL | 0.4 µg/mL (≈ 1.17 µM) | 8.9 µg/mL (≈ 26.1 µM) | – | – | – | – | –
CN1CCc2c(c3ccccc3n2Cc2ccc(C(=O)NO)cc2)C1 [TUBASTATIN A] | 4.4 µg/mL (≈ 13.1 µM) | > 10 µg/mL | – | 8.8 µg/mL (≈ 26.2 µM) | – | – | – | – | –
